From patent US10072026B2, “Crystalline form of 3-((1R,3s,5S)-3-((7-((5-methyl-1H-pyrazol-3-yl)amino)-1,6-naphthyridin-5-yl)amino)-8-azabicyclo[3.2.1]octan-8-yl)propanenitrile” (priority 2015, dated 2018)
pKi: −log10 of the molar value. Like-named read-outs stand apart in the source and are kept apart here.

Legend:
[1] = target: JAK1 (Homo sapiens (Human), UniProt P23458); assay: LanthaScreen JAK biochemical assay (JAK1); conditions: for Ki: read-out: JAK 1 (pKi) (converted)
[2] = target: JAK2 (Homo sapiens (Human), UniProt O60674); assay: LanthaScreen JAK biochemical assay (JAK2); conditions: for Ki: read-out: JAK 2 (pKi) (converted)
Sequence of JAK2 (O60674 whole entry): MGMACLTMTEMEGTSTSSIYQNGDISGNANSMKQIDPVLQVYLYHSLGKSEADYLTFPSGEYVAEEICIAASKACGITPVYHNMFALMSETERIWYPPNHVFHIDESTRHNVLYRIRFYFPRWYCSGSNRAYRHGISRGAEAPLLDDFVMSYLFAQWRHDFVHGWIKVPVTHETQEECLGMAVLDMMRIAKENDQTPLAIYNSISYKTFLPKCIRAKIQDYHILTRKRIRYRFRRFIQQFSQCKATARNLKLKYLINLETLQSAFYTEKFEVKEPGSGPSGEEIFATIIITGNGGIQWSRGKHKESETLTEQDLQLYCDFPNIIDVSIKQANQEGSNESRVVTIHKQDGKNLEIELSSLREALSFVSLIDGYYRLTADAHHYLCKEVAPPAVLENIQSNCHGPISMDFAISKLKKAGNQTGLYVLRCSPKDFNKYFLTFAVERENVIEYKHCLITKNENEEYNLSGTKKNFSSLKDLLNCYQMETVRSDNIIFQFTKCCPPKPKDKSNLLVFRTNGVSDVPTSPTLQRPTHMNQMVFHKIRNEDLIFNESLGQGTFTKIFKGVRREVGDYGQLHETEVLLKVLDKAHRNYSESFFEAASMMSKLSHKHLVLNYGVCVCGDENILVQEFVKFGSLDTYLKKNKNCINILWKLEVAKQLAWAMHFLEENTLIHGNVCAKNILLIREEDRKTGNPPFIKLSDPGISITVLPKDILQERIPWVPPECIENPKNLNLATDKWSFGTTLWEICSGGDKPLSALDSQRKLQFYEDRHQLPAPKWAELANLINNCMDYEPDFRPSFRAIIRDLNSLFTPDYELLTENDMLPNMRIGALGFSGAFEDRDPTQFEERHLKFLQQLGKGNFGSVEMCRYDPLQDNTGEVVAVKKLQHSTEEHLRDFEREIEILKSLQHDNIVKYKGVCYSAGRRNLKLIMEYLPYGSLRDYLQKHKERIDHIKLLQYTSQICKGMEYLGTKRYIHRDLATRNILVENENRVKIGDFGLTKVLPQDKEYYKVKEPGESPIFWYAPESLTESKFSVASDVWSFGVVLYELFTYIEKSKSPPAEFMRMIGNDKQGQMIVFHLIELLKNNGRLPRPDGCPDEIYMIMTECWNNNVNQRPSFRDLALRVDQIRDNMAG

[3] = tested on: IL-4 induced STAT6 phosphorylation in THP-1 human monocytic cells; assay: Cellular JAK potency assay, THP-1
[4] = Homo sapiens, THP-1, read-out: THP-1 IL4 pIC50 (converted)
[5] = THP-1 cells, IL-4 induced STAT6 phosphorylation
[6] = IL-4 induced STAT6 phosphorylation, THP-1 cells

Sequence of JAK1 (P23458 whole entry): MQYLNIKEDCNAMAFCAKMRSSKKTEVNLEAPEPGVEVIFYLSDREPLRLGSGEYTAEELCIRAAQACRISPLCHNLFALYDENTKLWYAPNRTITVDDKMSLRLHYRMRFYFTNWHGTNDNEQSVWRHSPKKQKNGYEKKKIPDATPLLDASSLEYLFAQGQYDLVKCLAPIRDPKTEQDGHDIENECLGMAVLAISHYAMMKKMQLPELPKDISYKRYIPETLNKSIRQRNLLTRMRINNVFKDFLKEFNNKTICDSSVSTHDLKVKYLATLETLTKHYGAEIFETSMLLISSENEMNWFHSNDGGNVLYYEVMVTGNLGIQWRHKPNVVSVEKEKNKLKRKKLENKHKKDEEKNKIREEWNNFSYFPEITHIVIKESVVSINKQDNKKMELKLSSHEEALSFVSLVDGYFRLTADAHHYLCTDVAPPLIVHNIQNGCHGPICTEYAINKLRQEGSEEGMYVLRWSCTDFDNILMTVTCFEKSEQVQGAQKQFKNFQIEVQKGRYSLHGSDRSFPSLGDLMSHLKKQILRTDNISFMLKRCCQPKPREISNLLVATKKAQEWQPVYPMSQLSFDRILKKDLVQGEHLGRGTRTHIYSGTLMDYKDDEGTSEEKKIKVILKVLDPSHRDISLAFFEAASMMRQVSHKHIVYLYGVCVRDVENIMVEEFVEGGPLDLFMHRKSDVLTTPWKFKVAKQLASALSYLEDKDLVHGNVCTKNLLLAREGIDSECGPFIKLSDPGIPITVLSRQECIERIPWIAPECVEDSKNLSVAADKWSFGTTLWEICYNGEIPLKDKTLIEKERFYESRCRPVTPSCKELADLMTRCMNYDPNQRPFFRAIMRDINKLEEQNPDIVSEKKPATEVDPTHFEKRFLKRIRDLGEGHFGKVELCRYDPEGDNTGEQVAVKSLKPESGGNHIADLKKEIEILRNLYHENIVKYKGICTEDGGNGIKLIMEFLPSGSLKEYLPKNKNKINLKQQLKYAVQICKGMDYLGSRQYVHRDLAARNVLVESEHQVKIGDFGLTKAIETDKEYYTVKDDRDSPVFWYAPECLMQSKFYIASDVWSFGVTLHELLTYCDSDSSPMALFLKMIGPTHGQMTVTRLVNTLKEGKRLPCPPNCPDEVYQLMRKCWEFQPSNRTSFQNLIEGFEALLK

Structure (SMILES) | IC50 [3, 4] | JAK 1 (pKi) [1] | JAK 2 (pKi) [2] | THP-1 IL4 pIC50 [3, 5] | THP-1 IL4 pIC50 [3, 6] | also measured
Cc1cc(Nc2cc3ncccc3c(N[C@@H]3C[C@H]4CC[C@@H](C3)N4C(=O)OC(C)C)n2)n[nH]1 [Example 3-2] | < 31.6 nM | – | – | – | – | pKi [1]: 9.00 to 10.00; pKi [2]: 9.00 to 10.00
Cc1cc(Nc2cc3nc(CN4CCC(F)(F)CC4)ccc3c(N[C@@H]3C[C@H]4CC[C@@H](C3)N4S(=O)(=O)c3cncc(F)c3)n2)n[nH]1 [Example 5-31] | 31.6 to 200 nM | – | – | – | – | pKi [1]: 9.00 to 10.00; Ki [2]: 0.1 to 1 nM
Cc1cc(Nc2cc3ncc(S(C)(=O)=O)cc3c(N[C@@H]3C[C@H]4CC[C@@H](C3)N4CCC#N)n2)n[nH]1 [Example 6-50] | – | A (A represents a pKi value≥10 (Ki≤0.1 nM)) | A (A represents a pKi value≥10 (Ki≤0.1 nM)) | C (C represents a pEC50 value<6.7 (EC50>200 nM)) | – | –
C=CCOC(=O)N1[C@@H]2CCC[C@H]1C[C@H](Nc1nc(Nc3cc(C)[nH]n3)cc3ncccc13)C2 [Example 3-8] | – | B (B represents a pKi value between 9 and 10 (Ki between 1 nM and 0.1 nM)) | B (B represents a pKi value between 9 and 10 (Ki between 1 nM and 0.1 nM)) | – | A (A represents a pEC50 value≥7.5 (EC50≤32 nM)) | –
Cc1cc(Nc2cc3ncccc3c(N[C@@H]3C[C@H]4CC[C@@H](C3)N4C(=O)Cc3ccccc3)n2)n[nH]1 [Example 2-11] | – | B (B represents a pKi value between 9 and 10 (Ki between 1 nM and 0.1 nM)) | B (B represents a pKi value between 9 and 10 (Ki between 1 nM and 0.1 nM)) | – | B (B represents a pEC50 value between 6.7 and 7.5 (EC50 between 200 nM and 32 nM)) | –
C=CCOC(=O)N1[C@@H]2CC[C@H]1C[C@H](Nc1nc(Nc3cc(C)[nH]n3)cc3ncccc13)C2 [Example 3-4] | – | B (B represents a pKi value between 9 and 10 (Ki between 1 nM and 0.1 nM)) | B (B represents a pKi value between 9 and 10 (Ki between 1 nM and 0.1 nM)) | – | A (A represents a pEC50 value≥7.5 (EC50≤32 nM)) | –
Cc1cc(Nc2cc3ncccc3c(N[C@@H]3C[C@H]4CC[C@@H](C3)N4S(=O)(=O)C3CNC3)n2)n[nH]1 [Example 4-9] | > 200 nM | – | – | – | – | pKi [1]: 9.00 to 10.00; Ki [2]: 0.1 to 1 nM
Cc1cc(Nc2cc3ncccc3c(N[C@@H]3C[C@H]4CC[C@@H](C3)N4CC3CCOCC3)n2)n[nH]1 [Example 1-20] | – | B (B represents a pKi value between 9 and 10 (Ki between 1 nM and 0.1 nM)) | B (B represents a pKi value between 9 and 10 (Ki between 1 nM and 0.1 nM)) | – | B (B represents a pEC50 value between 6.7 and 7.5 (EC50 between 200 nM and 32 nM)) | –
COc1cnc2cc(Nc3cc(C)[nH]n3)nc(N[C@@H]3C[C@H]4CC[C@@H](C3)N4CCCC#N)c2c1 [Example 6-12] | – | B (B represents a pKi value between 9 and 10 (Ki between 1 nM and 0.1 nM)) | B (B represents a pKi value between 9 and 10 (Ki between 1 nM and 0.1 nM)) | B (B represents a pEC50 value between 6.7 and 7.5 (EC50 between 200 nM and 32 nM)) | – | –
Cc1cc(Nc2cc3ncccc3c(N[C@@H]3C[C@H]4CC[C@@H](C3)N4CCC(F)(F)F)n2)n[nH]1 [Example 1-10] | – | B (B represents a pKi value between 9 and 10 (Ki between 1 nM and 0.1 nM)) | B (B represents a pKi value between 9 and 10 (Ki between 1 nM and 0.1 nM)) | – | C (C represents a pEC50 value<6.7 (EC50>200 nM)) | –
Cc1cc(Nc2cc3ncccc3c(N[C@@H]3C[C@H]4CCC[C@@H](C3)N4C(=O)OCC(C)C)n2)n[nH]1 [Example 3-7] | – | B (B represents a pKi value between 9 and 10 (Ki between 1 nM and 0.1 nM)) | B (B represents a pKi value between 9 and 10 (Ki between 1 nM and 0.1 nM)) | – | B (B represents a pEC50 value between 6.7 and 7.5 (EC50 between 200 nM and 32 nM)) | –
Cc1cc(Nc2cc3ncccc3c(N[C@@H]3C[C@H]4CC[C@@H](C3)N4C(=O)C3(C)CCCC3)n2)n[nH]1 [Example 2-10] | 31.6 to 200 nM | – | – | – | – | pKi [1]: 9.00 to 10.00; Ki [2]: 0.1 to 1 nM
COC(=O)c1cnc2cc(Nc3cc(C)[nH]n3)nc(N[C@@H]3C[C@H]4CC[C@@H](C3)N4C[C@H]3CCC(=O)O3)c2c1 [Example 6-46] | – | B (B represents a pKi value between 9 and 10 (Ki between 1 nM and 0.1 nM)) | B (B represents a pKi value between 9 and 10 (Ki between 1 nM and 0.1 nM)) | C (C represents a pEC50 value<6.7 (EC50>200 nM)) | – | –
Cc1cnc2c(F)c(Nc3cc(C)[nH]n3)nc(N[C@@H]3C[C@H]4CC[C@@H](C3)N4CCC#N)c2c1 [Example 8-18] | – | B (B represents a pKi value between 9 and 10 (Ki between 1 nM and 0.1 nM)) | B (B represents a pKi value between 9 and 10 (Ki between 1 nM and 0.1 nM)) | B (B represents a pEC50 value between 6.7 and 7.5 (EC50 between 200 nM and 32 nM)) | – | –
COC(=O)c1cnc2cc(Nc3cc(C)[nH]n3)nc(N[C@@H]3C[C@H]4CC[C@@H](C3)N4CCF)c2c1 [Example 6-43] | – | B (B represents a pKi value between 9 and 10 (Ki between 1 nM and 0.1 nM)) | B (B represents a pKi value between 9 and 10 (Ki between 1 nM and 0.1 nM)) | B (B represents a pEC50 value between 6.7 and 7.5 (EC50 between 200 nM and 32 nM)) | – | –
COc1ccnc2cc(Nc3cc(C)[nH]n3)nc(N[C@@H]3C[C@H]4CC[C@@H](C3)N4CC(F)F)c12 [Example 7-8] | – | B (B represents a pKi value between 9 and 10 (Ki between 1 nM and 0.1 nM)) | B (B represents a pKi value between 9 and 10 (Ki between 1 nM and 0.1 nM)) | B (B represents a pEC50 value between 6.7 and 7.5 (EC50 between 200 nM and 32 nM)) | – | –
Cc1cnc2c(F)c(Nc3cc(C)[nH]n3)nc(N[C@@H]3C[C@H]4CC[C@@H](C3)N4S(C)(=O)=O)c2c1 [Example 8-17] | – | A (A represents a pKi value≥10 (Ki≤0.1 nM)) | A (A represents a pKi value≥10 (Ki≤0.1 nM)) | B (B represents a pEC50 value between 6.7 and 7.5 (EC50 between 200 nM and 32 nM)) | – | –
Cc1cc(Nc2cc3ncccc3c(N[C@@H]3C[C@H]4CC[C@@H](C3)N4CC(=O)OC(C)(C)C)n2)n[nH]1 [Example 1-5] | – | B (B represents a pKi value between 9 and 10 (Ki between 1 nM and 0.1 nM)) | B (B represents a pKi value between 9 and 10 (Ki between 1 nM and 0.1 nM)) | – | B (B represents a pEC50 value between 6.7 and 7.5 (EC50 between 200 nM and 32 nM)) | –
Cc1cc(Nc2cc3ncccc3c(N[C@@H]3C[C@H]4CC[C@@H](C3)N4C(=O)c3ccncc3)n2)n[nH]1 [Example 2-13] | 31.6 to 200 nM | – | – | – | – | Ki [1]: 0.1 to 1 nM; Ki [2]: 0.1 to 1 nM
C=CCOC(=O)N1[C@@H]2CC[C@H]1C[C@H](Nc1nc(Nc3cc(C)[nH]n3)cc3ncc(C(=O)OC)cc13)C2 [Example 6-40] | – | B (B represents a pKi value between 9 and 10 (Ki between 1 nM and 0.1 nM)) | B (B represents a pKi value between 9 and 10 (Ki between 1 nM and 0.1 nM)) | A (A represents a pEC50 value≥7.5 (EC50≤32 nM)) | – | –
Cc1cc(Nc2cc3ncccc3c(N[C@@H]3C[C@H]4CC[C@@H](C3)N4C(=O)c3cccnc3)n2)n[nH]1 [Example 2-14] | > 200 nM | – | – | – | – | pKi [1]: 9.00 to 10.00; Ki [2]: 0.1 to 1 nM
Cc1cc(Nc2cc3ncccc3c(N[C@@H]3C[C@H]4CC[C@@H](C3)N4C(=O)c3ccccc3)n2)n[nH]1 [Example 2-12] | 31.6 to 200 nM | – | – | – | – | Ki [1]: 0.1 to 1 nM; Ki [2]: 0.1 to 1 nM
